According to patent US20220242851A1, “CRYSTAL FORM AND SALT OF QUINAZOLINE COMPOUND AND PREPARATION METHOD THEREOF” (SHENZHEN JINRUI FOUNDATION BIOTECH CO., LTD, priority 2019, published 2022):

System: subcutaneous xenograft tumor of human gastric cancer NCI-N87 cells
Test: In vivo pharmacodynamics, NCI-N87 subcutaneous xenograft (Assay Example 3)
Set-up: species or system mouse
Experimental: Purpose of the assay: in vivo efficacy of the assay compound disclosed herein on subcutaneous xenograft tumor of human gastric cancer NCI-N87 cells in a BALB/c nude mouse model was evaluated.
Animals of the assay: female BALB/c nude mice, 6-8 weeks old, weighted 18-22 grams; supplier: Shanghai Ling Chang Biotechnology Co., Ltd.
Human gastric cancer NCI-N87 cells were cultured in monolayer in vitro. The culture conditions were RPMI-1640 medium plus 10% fetal bovine serum, 100 U/mL penicillin, 100 U/mL streptomycin and 2 mM glutamine, 37° C., 5% CO2. The passaging was performed by the conventional digestion with trypsin-EDTA twice a week. When the cell saturation was 80%-90%, the cells were collected, counted and inoculated.
0.2 mL (10×10^6) of NCI-N87 cells (PBS+Matrigel, 1:1) were inoculated subcutaneously on the right back of each nude mouse. When the average tumor volume reached 158 mm^3, administration to each group was started.
The assay compounds were formulated into 0.04 mg/mL and 0.08 mg/mL clear solution in the solvents of 10% NMP (N-methylpyrrolidone)+10% ethylene glycol stearate+80% water.
The assay index was to investigate whether tumor growth is inhibited, delayed or cured. Tumor diameter was measured twice a week with a vernier caliper. The calculation formula of tumor volume was: V=0.5a×b^2, wherein a and b represent the long and short diameters of tumor, respectively.
The antitumor efficacy of the compounds was evaluated by TGI (%) or tumor proliferation rate T/C (%). TGI (%) reflects tumor growth inhibition rate. […]
Statistical analysis included mean and standard error of mean (SEM) of tumor volume at each time point in each group (See Table 13 for specific data). […] The comparison between groups was analyzed by T-test, and the comparison among three or more groups was analyzed by one-way ANOVA. […]

Question: For C=CC(=O)N1[C@@H]2CC[C@H]1C[C@H](Nc1cc3c(Nc4ccc(Cl)c(Cl)c4F)ncnc3cc1OC)C2 [Compound of formula (I)], which “tumor inhibitory effect (in words)” value (0.8 mg/kg, compared with the vehicle control group) is on record?
Answer: Its value is “significant tumor inhibitory effect”.

Question: And the “drug efficacy compared with Poziotinib (in words)” value (low-dose group (0.4 mg/kg))?
Answer: Its value is “comparable to or better than the reference compound Poziotinib”.
